Target: T1, purified ITK (Invitrogen PV3875) (Homo sapiens, UniProt Q08881)
T1 construct: purchased Invitrogen PV3875
T1 sequence (Q08881 1-620): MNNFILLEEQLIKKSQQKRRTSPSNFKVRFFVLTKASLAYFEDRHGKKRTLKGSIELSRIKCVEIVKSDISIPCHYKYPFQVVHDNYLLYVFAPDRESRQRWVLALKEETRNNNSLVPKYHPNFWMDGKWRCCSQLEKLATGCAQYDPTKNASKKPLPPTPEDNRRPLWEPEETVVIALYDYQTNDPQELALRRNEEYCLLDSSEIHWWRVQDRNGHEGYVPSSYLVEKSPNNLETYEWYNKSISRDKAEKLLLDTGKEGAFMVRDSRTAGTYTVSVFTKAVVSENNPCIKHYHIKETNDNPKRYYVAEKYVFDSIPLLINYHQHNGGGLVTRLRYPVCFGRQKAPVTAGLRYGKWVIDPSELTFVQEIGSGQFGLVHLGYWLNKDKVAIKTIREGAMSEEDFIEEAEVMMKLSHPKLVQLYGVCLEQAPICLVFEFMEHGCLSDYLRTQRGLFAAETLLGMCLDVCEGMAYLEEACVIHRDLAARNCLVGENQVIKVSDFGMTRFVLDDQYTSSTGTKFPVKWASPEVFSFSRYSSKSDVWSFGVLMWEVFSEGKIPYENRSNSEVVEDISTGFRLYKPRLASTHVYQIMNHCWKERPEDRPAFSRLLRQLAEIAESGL
Assay: ITK peptide phosphorylation assay (Caliper LabChip or LCMS)
Type: biochemical
Experimental: The ability of purified ITK (Invitrogen PV3875) to catalyze peptide phosphorylation is monitored using a Caliper LabChip 3000 microfluidic unit (Caliper assay) or by liquid chromatography-mass spectrometry (LCMS) using a Waters Acquity system (LCMS assay). […] Reactions are quenched by the addition of 2,2′,2″,2′″-(ethane-1,2-diyldinitrilo)tetraacetic acid (50 mM final). Non-phosphorylated substrate and phosphorylated product peptides are separated and quantified using a Caliper LabChip 3000 instrument. […] Reactions are quenched by the addition of trichloroacetic acid (5% v/v final). Non-phosphorylated substrate and phosphorylated product peptides are separated by ultra performance LC and detected by a coupled triple quadrupole MS device applying multiple reaction monitoring (MRM) for quantification. The area of the MRM-extracted mass signal is used to assess the inhibition by test compounds. Equilibrium dissociation constant (Ki) values for ITK inhibitors are calculated from plots of activity vs. inhibitor concentration using Morrison's quadratic equation that accounts for the potential of tight binding, and by also applying the conversion factor that accounts for competitive inhibition and the concentration of ATP used in the assay relative to its apparent Michaelis constant (Km,app).

[1] = Table 2, Examples 1-140, class symbols
[2] = Table 3, specific values for certain examples

| Compound | Ki (Table 1, Examples 141-279) | Ki [1] | Ki [2] |
| --- | --- | --- | --- |
| 6-(6-methoxy-3- pyridyl)-N-[1-(3- pyridylmethyl)py- razol-4-yl]-1H- indazole-3- carboxamide [Example 244] | 32.3 nM |  |  |
| N#Cc1cccc(Cn2cc(NC(=O)c3n[nH]c4ccc(Cl)cc34)cn2)c1 [Example 1, 5-chloro-N-(1-(3-cyanobenzyl)-1H-pyrazol-4-yl)-1H-indazole-3-carboxamide] |  | 1 to 100 nM | 37.7 nM |
| Cc1ccc2[nH]nc(C(=O)Nc3cnn(Cc4cccc(C#N)c4)c3)c2c1 [Example 2, N-(1-(3-cyanobenzyl)-1H-pyrazol-4-yl)-5-methyl-1H-indazole-3-carboxamide] |  | 1 to 100 nM | 16.5 nM |
| N#Cc1cccc(Cn2cc(NC(=O)c3n[nH]c4cc(F)ccc34)cn2)c1 [Example 3, N-(1-(3-cyanobenzyl)-1H-pyrazol-4-yl)-6-fluoro-1H-indazole-3-carboxamide] |  | 1 to 100 nM | 18.5 nM |
| COc1cccc2[nH]nc(C(=O)Nc3cnn(Cc4cccc(C#N)c4)c3)c12 [Example 4, N-(1-(3-cyanobenzyl)-1H-pyrazol-4-yl)-4-methoxy-1H-indazole-3-carboxamide] |  | > 100 nM | 1300 nM |
| COc1cccc2c(C(=O)Nc3cnn(Cc4cccc(C#N)c4)c3)n[nH]c12 [Example 5, N-(1-(3-cyanobenzyl)-1H-pyrazol-4-yl)-7-methoxy-1H-indazole-3-carboxamide] |  | > 100 nM | > 3500 nM |
| COc1ccc2c(C(=O)Nc3cnn(Cc4cccc(C#N)c4)c3)n[nH]c2c1 [Example 6, N-(1-(3-cyanobenzyl)-1H-pyrazol-4-yl)-6-methoxy-1H-indazole-3-carboxamide] |  | 1 to 100 nM |  |
| N#Cc1cccc(Cn2cc(NC(=O)c3n[nH]c4ccc(F)cc34)cn2)c1 [Example 7, N-(1-(3-cyanobenzyl)-1H-pyrazol-4-yl)-5-fluoro-1H-indazole-3-carboxamide] |  | 1 to 100 nM |  |
| COc1ccc2[nH]nc(C(=O)Nc3cnn(Cc4cccc(C#N)c4)c3)c2c1 [Example 8, N-(1-(3-cyanobenzyl)-1H-pyrazol-4-yl)-5-methoxy-1H-indazole-3-carboxamide] |  | 1 to 100 nM |  |
| O=C(Nc1cnn(Cc2cccc3cccnc23)c1)c1n[nH]c2cc(-c3cn[nH]c3)ccc12 [Example 9, 6-(1H-Pyrazol-4-yl)-1H-indazole-3-carboxylic acid (1-quinolin-8-ylmethyl-1H-pyrazol-4-yl)-amide] |  | 1 to 100 nM | 7.42 nM |
| COC(=O)c1cccc(Cn2cc(NC(=O)c3n[nH]c4cc(-c5cn[nH]c5)ccc34)cn2)c1 [Example 10, 3-(4-{[6-(1H-Pyrazol-4-yl)-1H-indazole-3-carbonyl]-amino}-pyrazol-1-ylmethyl)-benzoic acid methyl ester] |  | 1 to 100 nM |  |
| O=C(Nc1cnn(CCc2ccccc2)c1)c1n[nH]c2cc(-c3cn[nH]c3)ccc12 [Example 11, 6-(1H-Pyrazol-4-yl)-1H-indazole-3-carboxylic acid (1-phenethyl-1H-pyrazol-4-yl)-amide] |  | 1 to 100 nM |  |
| NC(=O)c1ccc(Cn2cc(NC(=O)c3n[nH]c4cc(-c5cn[nH]c5)ccc34)cn2)cc1 [Example 12, 6-(1H-Pyrazol-4-yl)-1H-indazole-3-carboxylic acid [1-(4-carbamoyl-benzyl)-1H-pyrazol-4-yl]-amide] |  | 0.01 to 1 nM |  |
| Cc1n[nH]c(C)c1CCn1cc(NC(=O)c2n[nH]c3cc(-c4cn[nH]c4)ccc23)cn1 [Example 13, 6-(1H-Pyrazol-4-yl)-1H-indazole-3-carboxylic acid {1-[2-(3,5-dimethyl-1H-pyrazol-4-yl)-ethyl]-1H-pyrazol-4-yl}-amide] |  | 1 to 100 nM |  |
| O=C(Nc1cnn(Cc2noc3ccccc23)c1)c1n[nH]c2cc(-c3cn[nH]c3)ccc12 [Example 14, 6-(1H-Pyrazol-4-yl)-1H-indazole-3-carboxylic acid (1-1,2-benzisoxazol-3-ylmethyl-1H-pyrazol-4-yl)-amide] |  | 1 to 100 nM | 2 nM |
| CNC(=O)c1ccc(Cn2cc(NC(=O)c3n[nH]c4cc(-c5cn[nH]c5)ccc34)cn2)o1 [Example 15, 6-(1H-Pyrazol-4-yl)-1H-indazole-3-carboxylic acid [1-(5-methylcarbamoyl-furan-2-ylmethyl)-1H-pyrazol-4-yl]-amid] |  | 1 to 100 nM |  |
| O=C(Nc1cnn(Cc2cc(-c3ccccc3)on2)c1)c1n[nH]c2cc(-c3cn[nH]c3)ccc12 [Example 16, 6-(1H-Pyrazol-4-yl)-1H-indazole-3-carboxylic acid [1-(5-phenyl-isoxazol-3-ylmethyl)-1H-pyrazol-4-yl]-amide] |  | 1 to 100 nM | 6.9 nM |
| O=C(Nc1cnn(Cc2nc3ccccc3s2)c1)c1n[nH]c2cc(-c3cn[nH]c3)ccc12 [Example 17, 6-(1H-Pyrazol-4-yl)-1H-indazole-3-carboxylic acid (1-benzothiazol-2-ylmethyl-1H-pyrazol-4-yl)-amide] |  | 1 to 100 nM | 1.8 nM |
| O=C(Nc1cnn(Cc2cc(CN3CCOCC3)on2)c1)c1n[nH]c2cc(-c3cn[nH]c3)ccc12 [Example 18, 6-(1H-Pyrazol-4-yl)-1H-indazole-3-carboxylic acid [1-(5-morpholin-4-ylmethyl-isoxazol-3-ylmethyl)-1H-pyrazol-4-yl]-amide] |  | 1 to 100 nM |  |
| O=C(Nc1cnn(Cc2cn3ccccc3n2)c1)c1n[nH]c2cc(-c3cn[nH]c3)ccc12 [Example 19, 6-(1H-Pyrazol-4-yl)-1H-indazole-3-carboxylic acid (1-imidazo[1,2-a]pyridin-2-ylmethyl-1H-pyrazol-4-yl)-amide] |  | 1 to 100 nM | 2.3 nM |
| O=C(Nc1cnn(Cc2csc(-c3ccccc3)n2)c1)c1n[nH]c2cc(-c3cn[nH]c3)ccc12 [Example 20, 6-(1H-Pyrazol-4-yl)-1H-indazole-3-carboxylic acid [1-(2-phenyl-thiazol-4-ylmethyl)-1H-pyrazol-4-yl]-amide] |  | 1 to 100 nM |  |
| CC(C)c1nc(Cn2cc(NC(=O)c3n[nH]c4cc(-c5cn[nH]c5)ccc34)cn2)cs1 [Example 21, 6-(1H-Pyrazol-4-yl)-1H-indazole-3-carboxylic acid [1-(2-isopropyl-thiazol-4-ylmethyl)-1H-pyrazol-4-yl]-amide] |  | 1 to 100 nM |  |
| O=C(Nc1cnn(Cc2cccc(C(=O)N3CCC(O)CC3)c2)c1)c1n[nH]c2cc(-c3cn[nH]c3)ccc12 [Example 22, 6-(1H-Pyrazol-4-yl)-1H-indazole-3-carboxylic acid {1-[3-(4-hydroxy-1-piperidine-1-carbonyl)-benzyl]-1H-pyrazol-4-yl}amide] |  | 1 to 100 nM |  |
| O=C(Nc1cnn(Cc2csc(-c3cccs3)n2)c1)c1n[nH]c2cc(-c3cn[nH]c3)ccc12 [Example 23, 6-(1H-Pyrazol-4-yl)-1H-indazole-3-carboxylic acid [1-(2-thiophen-2-yl-thiazol-4-ylmethyl)-1H-pyrazol-4-yl]-amide] |  | 1 to 100 nM |  |
| O=C(Nc1cnn(Cc2csc(-c3ccccn3)n2)c1)c1n[nH]c2cc(-c3cn[nH]c3)ccc12 [Example 24, 6-(1H-pyrazol-4-yl)-N-[1-[[2-(2-pyridyl)thiazol-4-yl]methyl]pyrazol-4-yl]-1H-indazole-3-carboxamide] |  | 0.01 to 1 nM |  |
| C#Cc1cccc(Cn2cc(NC(=O)c3n[nH]c4cc(-c5cn[nH]c5)ccc34)cn2)c1 [Example 25, N-[1-[(3-ethynylphenyl)methyl]pyrazol-4-yl]-6-(1H-pyrazol-4-yl)-1H-indazole-3-carboxamide] |  | 1 to 100 nM |  |
| O=C(Nc1cnn(Cc2cscn2)c1)c1n[nH]c2cc(-c3cn[nH]c3)ccc12 [Example 26, 6-(1H-Pyrazol-4-yl)-1H-indazole-3-carboxylic acid (1-thiazol-4-ylmethyl-1H-pyrazol-4-yl)-amide] |  | 1 to 100 nM |  |
| N#Cc1ccc(Cn2cc(NC(=O)c3n[nH]c4cc(-c5cn[nH]c5)ccc34)cn2)s1 [Example 27, 6-(1H-Pyrazol-4-yl)-1H-indazole-3-carboxylic acid [1-(5-cyano-thiophen-2-ylmethyl)-1H-pyrazol-4-yl]-amide] |  | 0.01 to 1 nM |  |
| Nc1cc(Cn2cc(NC(=O)c3n[nH]c4cc(-c5cn[nH]c5)ccc34)cn2)ccn1 [Example 28, 6-(1H-Pyrazol-4-yl)-1H-indazole-3-carboxylic acid [1-(2-amino-pyridin-4-ylmethyl)-1H-pyrazol-4-yl]-amide] |  | 1 to 100 nM |  |
| NC(=O)c1cccc(Cn2cc(NC(=O)c3n[nH]c4cc(-c5cn[nH]c5)ccc34)cn2)c1 [Example 29, 6-(1H-Pyrazol-4-yl)-1H-indazole-3-carboxylic acid [1-(3-carbamoyl-benzyl)-1H-pyrazol-4-yl]-amide] |  | 0.01 to 1 nM |  |
